“Also recorded” adds a separate entry of the source. Square brackets hold non-standard residues; d marks the D form. Peptide text beside a SMILES is read from it. Dmt = Cc1cc(O)cc(C)c1C[C@H](N)C(=O)O
Experiments:
[1] = tested on: Huh7 cells; assay: GFP uptake into cells on co-incubation with peptide or peptide-SMCC conjugate; type: cell-based; settings: 3 μg GFP + 40 μl peptide, 60 min at 37° C., then 24 hours; versus GFP alone
Procedure: Carrier complex formation by physical mixing of protein and [Dmt1]DALDA-SMCC conjugate. The [Dmt^1]DALDA-SMCC conjugate was prepared as described above. The protein molecules (i.e. green fluorescent protein, GFP) were mixed with the [Dmt^1]DALDA-SMCC conjugate for 15 min at room temperature before use in cellular uptake studies.
Assay for protein uptake into cells when co-incubated with [Dmt1]DALDA-SMCC conjugate. […] 2 ml of cell medium was then added to cells which were incubated for an additional 24 hours in the cell culture incubator. After incubation, cells were washed four times in cell medium and GFP retained in living cells was visualized, by confocal laser scanning microscopy. Excitation was performed at 340 nm and emission was measured at 520 nm.
2 ml of cell medium was then added to cells and incubated for an additional 24 hours in cell culture incubator. After incubation, cells were washed four times in cell medium and GFP retained in living cells was visualized by confocal laser scanning microscopy. Excitation was performed at […] and emission was measured at […].

[2] = tested on: Huh7 cells; assay: RNA uptake into cells when mixed with peptide-SMCC conjugate; type: cell-based; settings: for increase of uptake of RNA oligo on co-incubation: 11-base RNA oligo
Procedure: Carrier complex formation by physical mixing of RNA and [Dmt^1]DALDA-SMCC conjugate. The [Dmt^1]DALDA-SMCC conjugate was prepared as described above. The RNA molecules were mixed with the [Dmt^1]DALDA-SMCC conjugate in PBS for 15 min at room temperature before use in cellular uptake studies.
Assay for uptake of RNA uptake into cells when mixed with [Dmt1]DALDA-cross-linker conjugate. Huh7 cells (1×10^6 cells/well) were washed with DMEM and then incubated with 1.0 ml DMEM containing [^32P]RNA oligo alone or with 40 μl [Dmt^1]DALDA-SMCC conjugate, for 60 min at 37° C. or 4° C. Cells were then washed four times in DMEM and one time in sodium acetate solution to reduce nonspecific binding before incubated in lysis buffer for 30 min and radioactivity determined in the cell lysate.
The carrier complex was formed by physical mixing of RNA and [Dmt^1]DALDA-SMCC conjugate. […] A single strand 11-mer [^32P]RNA oligo was mixed with the [Dmt^1]DALDA-SMCC conjugate for 15 min at room temperature before use in cellular uptake studies.
Huh7 cells (1×10^6 cells/well) were washed with DMEM and then incubated with 1.0 ml DMEM containing the [^32P]RNA oligo (100,000 cpm) alone or with […] [Dmt^1]DALDA-SMCC conjugate at 37° C. or 4° C. Cells were then washed four times in DMEM and one time in sodium acetate solution to remove nonspecific binding before incubated in lysis buffer for 30 min and retained radioactivity determined.

[3] = tested on: Huh7 cells; assay: Cell viability by trypan blue uptake; type: cell-based; settings: 50 μl of 1 mM conjugate in 1 ml medium, 24 hours at 37° C.
Procedure: Trypan blue is only taken by cells with increased membrane permeability. Huh7 cells (1×10^6) were washed three times in DMEM, and 1 ml of fresh medium, or media containing 50 μl of 1 mM [Dmt^1]DALDA-SMCC conjugate, [D-Arg-Dmt-Lys-Phe-NH2]-SMCC conjugate, or [Phe^1]DALDA-SMCC conjugate, and incubated at 37° C. for 24 hours at 5% CO2. Cells were then washed three times with DMEM, and 1 ml of 0.4% trypan blue was added to the cells for 2 minutes. Excessive dye was removed by washing cells in cell medium and the cells were examined by light microscopy.

[4] = tested on: Huh7 cells; assay: Assay of apoptosis (Hoechst dye); type: cell-based; settings: 50 μl of 1 mM conjugate, 24 hours at 37° C., versus PBS control
Procedure: Assay of apoptosis. Apoptosis was determined with the use of Hoechst dye (Molecular Probes, Eugene, Oreg.) for staining apoptotic nuclei. The Hoechst dye was loaded to cell cultures and incubated for 15 min. Excessive Hoechst dye was removed by washing cells with cell medium. (free of pH indicator) the cells examined using fluorescent microscopy (excitation at 350 nm and emission at 461 nm).
After the incubation, 1 ml of Hoechst dye (Molecular Probes, Eugene, Oreg.) for staining apoptotic nuclei were added to cells and incubated for additional 15 min. Excessive Hoechst dye was removed by washing cells with cell medium (free of pH indicator) and cells treated with [Dmt^1]DALDA-SMCC conjugate were compared with control cells using fluorescent microscopy (excitation at 350 nm and emission at […]). Apoptosis is indicated by concentration of fluorescence in the nuclei.

[5] = tested on: Caco-2 cells; assay: Assay for peptide uptake in Caco-2 cells; type: cell-based
Excerpt: Assay for Peptide Uptake.

[6] = tested on: cell surface receptors, membranes prepared from Caco-2 cells; assay: Radioligand binding assay using Caco-2 cell membranes; settings: 15-960 pM radioligand, 60 min at 25° C.; listed as [^3H][Dmt^1]DALDA
Procedure: Radioligand Binding Assay Using Cell Membranes. […] After 4 days of culture, cells were washed two times with PBS buffer and then scraped off. Cells were centrifuged at 500 g for 5 min and the pellet stored at −80° C. Cells were homogenized in ice-cold 50 mM Tris-HCl buffer (5 μg/ml leupeptin, 2 μg/ml chymostatin, 10 μg/ml bestatin, and 1 mM EGTA, pH 7.4). The homogenate was centrifuged at 36,000 g for 20 min. The pellets were resuspended with 50 mM Tris-HCl buffer. […] Free radioligand was separated from bound radioligand by rapid filtration through GF/B filters (Whatman, Maidstone, UK) with a cell harvester (Brandel Inc., Gaithersburg, Md.). Filters were washed three times with 10 ml of Tris buffer, and radioactivity was determined by liquid scintillation counting. Binding affinities (Kd) and receptor number (Bmax) were determined using nonlinear regression (GraphPad Software, San Diego, Calif.).

[7] = tested on: Caco-2 cells; assay: Assay for peptide efflux from Caco-2 cells; type: cell-based
Procedure: Assay for Peptide Efflux from CaCo-2 Cells. […] Cells were then washed four times with 1 ml of ice-cold incubation solution to terminate uptake and then incubated with 0.5 ml of MEM for 1 h at either 37 or 4° C. to measure the efflux of peptide from cells to the incubation medium. The amount of radioactivity was determined in cell lysates and in the incubation medium.

[8] = Peptide translocation across Caco-2 monolayers (Transwell, apical-to-basolateral); type: in vitro ADME; settings: human, Caco-2; apical-to-basolateral; read-out: apparent permeability coefficient
Procedure: (§1) Assay for Peptide Translocation across Caco-2 Monolayers. Monolayers of Caco-2 cells were prepared as described previously (Irie et al., J. Pharmacol. Exp. Ther. 2001, 298: 711-717), Caco-2 cells (2×10^5) were seeded on microporous membrane filters (24 mm, […]) inside Transwell cell culture chambers (Corning Glassworks, Corning, N.Y.). Each Transwell chamber was filled with 1.5 ml of medium in the apical compartment and 2.5 ml in the basolateral compartment. The cell monolayers were given fresh medium every 1 to 2 days and were used on day 28 for transport experiments.
(§2) The apparent permeability coefficient was calculated according to the following equation: Papp=X/(t·A·Co), where X/t is the rate of uptake in the receiver compartment, A is the diffusion area (4.72 cm^2), and Co is the initial concentration in the donor compartment.

[9] = tested on: Caco-2 monolayer; assay: as above; type: in vitro ADME; settings: 60 min
Procedure: as §1, §2

[10] = tested on: N2A cells; assay: Cell viability, MTT assay, N2A cells; type: cell-based; settings: 1 nM to 10 μM, 24 h
[11] = tested on: SH-SY5Y cells; assay: Cell viability, MTT assay, SH-SY5Y cells; type: cell-based; settings: 1 nM to 10 μM, 24 h
[12] = tested on: Caco-2 cells; assay: Cell viability, MTT assay, Caco-2 cells; type: cell-based; settings: 1 nM to 10 μM, 24 h
[13] = tested on: Caco-2, SH-SY5Y, HEK293, and CRFK cells; settings: 250 nM, 1 h at 37° C., acid-wash
Procedure: Assay for Peptide Uptake. […] Monolayers of cells were grown on 12-well plates (5×10^5 cells/well) coated with collagen for 3 days. […] At the end of the incubation period, cells were washed four times with HBSS, and 0.2 ml of 0.1 N NaOH with 1% SDS was added to each well. The cell contents were then transferred to scintillation vials and radioactivity was counted. […] Before cell lysis, cells were incubated. with 0.2 ml of 0.2 M acetic acid/0.05 M NaCl for 5 min on ice.
An acid-wash step was included to distinguish internalized radioactivity (acid-resistant) from surface-bound radioactivity (acid-sensitive).

[14] = tested on: peptidase; settings: Szeto et al., J. Pharmacol. Exp. Ther., 2001; cited from earlier work
[15] = tested on: cells in culture; settings: similar studies, cell line not stated

## Cc1cc(O)cc(C)c1C[C@H](N)C(=O)N[C@H](CCCNC(=N)N)C(=O)N[C@@H](Cc1ccccc1)C(=O)N[C@@H](CCCCNC(=O)C1CCC(CN2C(=O)C=CC2=O)CC1)C(N)=O (stereo partly drawn) [[Dmt^1]DALDA-SMCC conjugate]
[1]
  uptake of GFP into cells (green fluorescence): even greater uptake of GFP; also recorded: enhances uptake of green fluorescent protein
[2]; 15 min at 37° C.
  increase of uptake of RNA oligo on co-incubation: 10 fold
[2]; 60 min at 37° C.
  increase of uptake of RNA oligo on co-incubation: ~20 fold
[2]; FIG. 13 experiment, 60 min at 37° C.
  increase of uptake of 11-mer RNA on co-incubation: 22 fold
[3]
  trypan blue uptake (cell viability): No increase in trypan blue uptake
[4]
  apoptosis (Hoechst staining of nuclei): did not induce apoptosis; also recorded: does not induce apoptosis

## Cc1cc(O)cc(C)c1C[C@H](N)C(=O)N[C@H](CCCNC(=N)N)C(=O)N[C@@H](Cc1ccccc1)C(=O)N[C@@H](CCCCN)C(N)=O [[Dmt^1]DALDA, 2′,6-Dmt-D-Arg-Phe-Lys-NH2]
[5]; 1 μM-3 mM, 1 h at 37° C.
  concentration dependence of uptake: concentration-dependent over a wide range of concentrations
[5]; 100 μM verapamil
  effect of verapamil (P-glycoprotein inhibitor) on cellular uptake: no effect
[5]; 0.2 mM DEPC
  increase of uptake by DEPC: 34 fold
[5]; 4° C. versus 37° C.
  effect of 4° C. on uptake: slower compared with 37 °C
[5]; 4° C., 45 min, compared with 37° C.
  uptake at 4° C. by 45 min: 76.5%
[5]; 4° C., 1 h, compared with 37° C.
  uptake at 4° C. by 1 h: 86,3%
[5]; 37° C., 250 nM
  time at which peptide was first observed in cell lysate: 5 min
[5]; 1 h at 37° C., acid-wash before lysis
  fraction resistant to acid-wash (presumed inside the cell): 80.8%
[5]; after 1-h incubation, 37° C.
  total amount recovered in cell lysate, of the total drug: about 1%
[5]; pH varied from 4.0 to 7.4, 1 h at 37° C.
  effect of pH on uptake: unchanged
[6]
  specific binding to Caco-2 membranes: No high-affinity specific binding was observed
[7]; 100 μM verapamil
  effect of verapamil (P-glycoprotein inhibitor) on efflux: not affected
[7]; 0.2 mM DEPC, 10 min at 25° C. before loading
  effect of DEPC on efflux: decreased
[7]; 4° C. versus 37° C.
  effect of temperature (4° C.) on efflux: temperature had a significant effect
[7]; preloaded 1 h, 1 h efflux at 37° C.
  peptide effluxed into medium: 80%
[8]
  Papp A→B at 0.2 μM: 12.4 ×10⁻⁶ cm/s
[9]
  percentage translocated from the apical to the basolateral side: 10.4%
[1]
  uptake of GFP into cells (green fluorescence): moderately increased green fluorescence within the cell cytoplasm
[10]
  cell viability (MTT assay): no effect on cell viability; also recorded: not toxic to cells in culture
[11]
  cell viability (MTT assay): no effect on cell viability
[12]
  cell viability (MTT assay): no effect on cell viability
[13]
  internalization (acid-resistant radioactivity) in different cell lines: taken up extensively in all cell types
[14]
  resistance against peptidase degradation: resistant against peptidase degradation

## Cc1cc(O)cc(C)c1C[C@H](NC(=O)[C@H](N)CCCNC(=N)N)C(=O)N[C@@H](CCCCN)C(=O)N[C@@H](Cc1ccccc1)C(N)=O [[D-Arg-Dmt-Lys-Phe-NH2], D-Arg-2′6′Dmt-Lys-Phe-NH2] (H-[dR][Dmt]KF-NH2)
[15]
  toxicity to cells / cell viability: no effect on cell viability
